PubChem BioAssay (NCI)
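Interpolation was linear, between the two tested concentrations surrounding the appropriate level; five concentrations were tested over 48 hours in 96-well plates. GI50 marks 50% less growth. Definition used: TGI = concentration required for complete inhibition of growth.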

What was measured:
Test in all cases: NCI-60 cell line screen, 48 h
SK-MEL-5 melanoma = system: SK-MEL-5 melanoma
HOP-62 NSCLC = system: HOP-62 NSCLC
NCI/ADR-RES ovarian = system: NCI/ADR-RES ovarian
MDA-MB-435 = system: MDA-MB-435
KM12 colon = system: KM12 colon
HCT-116 colon = system: HCT-116 colon
IGROV1 ovarian = system: IGROV1 ovarian
NCI-H522 lung = system: NCI-H522 lung
RPMI-8226 leukemia = system: RPMI-8226 leukemia
MOLT-4 leukemia = system: MOLT-4 leukemia
MCF7 breast = system: MCF7 breast
MALME-3M melanoma = system: MALME-3M melanoma
OVCAR-3 ovarian = system: OVCAR-3 ovarian
SN12C renal = system: SN12C renal
OVCAR-8 ovarian = system: OVCAR-8 ovarian
A498 renal = system: A498 renal
SR leukemia = system: SR leukemia
SF-295 CNS = system: SF-295 CNS
OVCAR-5 ovarian = system: OVCAR-5 ovarian
NCI-H226 lung = system: NCI-H226 lung
NCI-H23 lung = system: NCI-H23 lung
HCT-15 colon = system: HCT-15 colon
BT-549 breast = system: BT-549 breast
K-562 leukemia = system: K-562 leukemia
M14 melanoma = system: M14 melanoma
HS 578T breast = system: HS 578T breast
MDA-MB-231 breast = system: MDA-MB-231 breast
PC-3 prostate = system: PC-3 prostate
CCRF-CEM leukemia = system: CCRF-CEM leukemia
LOX IMVI melanoma = system: LOX IMVI melanoma
HCC-2998 colon = system: HCC-2998 colon
SK-OV-3 ovarian = system: SK-OV-3 ovarian
HL-60(TB) leukemia = system: HL-60(TB) leukemia
DU-145 prostate = system: DU-145 prostate
SNB-75 CNS = system: SNB-75 CNS
T-47D breast = system: T-47D breast
TK-10 renal = system: TK-10 renal
HT29 colon = system: HT29 colon
CAKI-1 renal = system: CAKI-1 renal
UO-31 renal = system: UO-31 renal
RXF 393 renal = system: RXF 393 renal
UACC-257 melanoma = system: UACC-257 melanoma
OVCAR-4 ovarian = system: OVCAR-4 ovarian
UACC-62 melanoma = system: UACC-62 melanoma
NCI-H460 lung = system: NCI-H460 lung
SK-MEL-28 melanoma = system: SK-MEL-28 melanoma
COLO 205 colon = system: COLO 205 colon
ACHN renal = system: ACHN renal
SW-620 colon = system: SW-620 colon
A549 NSCLC = system: A549 NSCLC
786-0 renal = system: 786-0 renal
SNB-19 CNS = system: SNB-19 CNS
SF-268 CNS = system: SF-268 CNS
SK-MEL-2 melanoma = system: SK-MEL-2 melanoma
SF-539 CNS = system: SF-539 CNS
U251 CNS = system: U251 CNS
HOP-92 NSCLC = system: HOP-92 NSCLC
EKVX NSCLC = system: EKVX NSCLC

CCCCCCCCCCNC(=O)CI
GI50 (SK-MEL-5 melanoma): 1.96 µM
TGI (SK-MEL-5 melanoma): 4.72 µM
GI50 (HOP-62 NSCLC): 1.95 µM
TGI (HOP-62 NSCLC): 4.04 µM
GI50 (NCI/ADR-RES ovarian): 2.32 µM
TGI (NCI/ADR-RES ovarian): 5.56 µM
GI50 (MDA-MB-435): 1.97 µM
TGI (MDA-MB-435): 4.51 µM
GI50 (KM12 colon): 2.13 µM
TGI (KM12 colon): 4.29 µM
GI50 (HCT-116 colon): 1.65 µM
TGI (HCT-116 colon): 3.07 µM
GI50 (IGROV1 ovarian): 0.12 µM
TGI (IGROV1 ovarian): 0.288 µM
GI50 (NCI-H522 lung): 0.151 µM
TGI (NCI-H522 lung): 0.331 µM
GI50 (RPMI-8226 leukemia): 2.21 µM
TGI (RPMI-8226 leukemia): 5.02 µM
GI50 (MOLT-4 leukemia): 0.298 µM
TGI (MOLT-4 leukemia): 1.07 µM
GI50 (MCF7 breast): 1.97 µM
TGI (MCF7 breast): 4.59 µM
GI50 (MALME-3M melanoma): 0.213 µM
TGI (MALME-3M melanoma): 0.494 µM
GI50 (OVCAR-3 ovarian): 1.87 µM
TGI (OVCAR-3 ovarian): 3.44 µM
GI50 (SN12C renal): 1.21 µM
TGI (SN12C renal): 2.8 µM
GI50 (OVCAR-8 ovarian): 1.55 µM
TGI (OVCAR-8 ovarian): 4.52 µM
GI50 (A498 renal): 12.4 µM
TGI (A498 renal): 26.1 µM
GI50 (SR leukemia): 0.204 µM
TGI (SR leukemia): 0.64 µM
GI50 (SF-295 CNS): 4.58 µM
TGI (SF-295 CNS): 13.2 µM
GI50 (OVCAR-5 ovarian): 3.39 µM
TGI (OVCAR-5 ovarian): 10.4 µM
GI50 (NCI-H226 lung): 2.19 µM
TGI (NCI-H226 lung): 8.84 µM
GI50 (NCI-H23 lung): 0.929 µM
TGI (NCI-H23 lung): 2.74 µM
GI50 (HCT-15 colon): 1.5 µM
TGI (HCT-15 colon): 3.31 µM
GI50 (BT-549 breast): 1.73 µM
TGI (BT-549 breast): 3.35 µM
GI50 (K-562 leukemia): 0.938 µM
TGI (K-562 leukemia): 3.95 µM
GI50 (M14 melanoma): 1.59 µM
TGI (M14 melanoma): 3.2 µM
GI50 (HS 578T breast): 2.53 µM
TGI (HS 578T breast): 6.79 µM
GI50 (MDA-MB-231 breast): 1.66 µM
TGI (MDA-MB-231 breast): 3.29 µM
GI50 (PC-3 prostate): 1.8 µM
TGI (PC-3 prostate): 3.56 µM
GI50 (CCRF-CEM leukemia): 0.194 µM
TGI (CCRF-CEM leukemia): 0.482 µM
GI50 (LOX IMVI melanoma): < 0.0424 µM
TGI (LOX IMVI melanoma): 0.104 µM
GI50 (HCC-2998 colon): 3.53 µM
TGI (HCC-2998 colon): 11.5 µM
GI50 (SK-OV-3 ovarian): 1.89 µM
TGI (SK-OV-3 ovarian): 3.38 µM
GI50 (HL-60(TB) leukemia): 1.32 µM
TGI (HL-60(TB) leukemia): 3.12 µM
GI50 (DU-145 prostate): 1.95 µM
TGI (DU-145 prostate): 3.72 µM
GI50 (SNB-75 CNS): 1.64 µM
TGI (SNB-75 CNS): 3.09 µM
GI50 (T-47D breast): 0.829 µM
TGI (T-47D breast): 2.41 µM
GI50 (TK-10 renal): 1.76 µM
TGI (TK-10 renal): 3.33 µM
GI50 (HT29 colon): 1.98 µM
TGI (HT29 colon): 3.76 µM
GI50 (CAKI-1 renal): 1.56 µM
TGI (CAKI-1 renal): 3.55 µM
GI50 (UO-31 renal): 1.58 µM
TGI (UO-31 renal): 3.04 µM
GI50 (RXF 393 renal): 1.74 µM
TGI (RXF 393 renal): 3.53 µM
GI50 (UACC-257 melanoma): 1.63 µM
TGI (UACC-257 melanoma): 3.39 µM
GI50 (OVCAR-4 ovarian): 1.87 µM
TGI (OVCAR-4 ovarian): 5.42 µM
GI50 (UACC-62 melanoma): 1.69 µM
TGI (UACC-62 melanoma): 3.28 µM
GI50 (NCI-H460 lung): 3.05 µM
TGI (NCI-H460 lung): 9.66 µM
GI50 (SK-MEL-28 melanoma): 1.95 µM
TGI (SK-MEL-28 melanoma): 3.91 µM
GI50 (COLO 205 colon): 2.38 µM
TGI (COLO 205 colon): 6.01 µM
GI50 (ACHN renal): 1.65 µM
TGI (ACHN renal): 3.08 µM
GI50 (SW-620 colon): 1.77 µM
TGI (SW-620 colon): 3.65 µM
GI50 (A549 NSCLC): 5.44 µM
TGI (A549 NSCLC): 21.9 µM
GI50 (786-0 renal): 1.8 µM
TGI (786-0 renal): 3.37 µM
GI50 (SNB-19 CNS): 11.2 µM
TGI (SNB-19 CNS): 23.9 µM
GI50 (SF-268 CNS): 1.86 µM
TGI (SF-268 CNS): 3.65 µM
GI50 (SK-MEL-2 melanoma): 1.94 µM
TGI (SK-MEL-2 melanoma): 4.02 µM
GI50 (SF-539 CNS): 1.78 µM
TGI (SF-539 CNS): 3.22 µM
GI50 (U251 CNS): 1.58 µM
TGI (U251 CNS): 3.14 µM

O=C1c2ccccc2-c2c1c1ccccc1c(=O)n2CCN1CCNCC1
GI50 (HOP-62 NSCLC): 1.92 µM
TGI (HOP-62 NSCLC): 6.27 µM
GI50 (NCI/ADR-RES ovarian): 2.55 µM
TGI (NCI/ADR-RES ovarian): 11.4 µM
GI50 (MDA-MB-435): 1.97 µM
TGI (MDA-MB-435): 4.2 µM
GI50 (KM12 colon): 1.24 µM
TGI (KM12 colon): 3.47 µM
GI50 (HCT-116 colon): 0.573 µM
TGI (HCT-116 colon): 3.97 µM
GI50 (IGROV1 ovarian): 3.61 µM
TGI (IGROV1 ovarian): > 100 µM
GI50 (NCI-H522 lung): 3.06 µM
TGI (NCI-H522 lung): 19.3 µM
GI50 (RPMI-8226 leukemia): 1.63 µM
TGI (RPMI-8226 leukemia): 4.43 µM
GI50 (MOLT-4 leukemia): 0.253 µM
TGI (MOLT-4 leukemia): 0.688 µM
GI50 (MCF7 breast): 0.836 µM
TGI (MCF7 breast): 17.5 µM
GI50 (MALME-3M melanoma): 2.53 µM
TGI (MALME-3M melanoma): 6.79 µM
GI50 (OVCAR-3 ovarian): 1.12 µM
TGI (OVCAR-3 ovarian): 6.93 µM
GI50 (SN12C renal): 2.21 µM
TGI (SN12C renal): 18.1 µM
GI50 (OVCAR-8 ovarian): 0.968 µM
TGI (OVCAR-8 ovarian): 3.59 µM
GI50 (SF-295 CNS): 0.552 µM
TGI (SF-295 CNS): 3.05 µM
GI50 (OVCAR-5 ovarian): 1.55 µM
TGI (OVCAR-5 ovarian): 6.92 µM
GI50 (NCI-H226 lung): 1.06 µM
TGI (NCI-H226 lung): 3.15 µM
GI50 (HCT-15 colon): 0.935 µM
TGI (HCT-15 colon): 11.3 µM
GI50 (BT-549 breast): 4.96 µM
TGI (BT-549 breast): 17.8 µM
GI50 (K-562 leukemia): 0.902 µM
TGI (K-562 leukemia): 5.05 µM
GI50 (HS 578T breast): 3.74 µM
TGI (HS 578T breast): 26.5 µM
GI50 (MDA-MB-231 breast): 2.45 µM
TGI (MDA-MB-231 breast): 10.7 µM
GI50 (PC-3 prostate): 4.02 µM
TGI (PC-3 prostate): 17.8 µM
GI50 (HOP-92 NSCLC): 4.44 µM
TGI (HOP-92 NSCLC): 17.4 µM
GI50 (CCRF-CEM leukemia): 0.671 µM
TGI (CCRF-CEM leukemia): 4.26 µM
GI50 (LOX IMVI melanoma): 0.735 µM
TGI (LOX IMVI melanoma): 2.99 µM
GI50 (HCC-2998 colon): 0.785 µM
TGI (HCC-2998 colon): 5.01 µM
GI50 (SK-OV-3 ovarian): 1.73 µM
TGI (SK-OV-3 ovarian): 6.26 µM
GI50 (DU-145 prostate): 3.11 µM
TGI (DU-145 prostate): 8.79 µM
GI50 (SNB-75 CNS): 6.26 µM
TGI (SNB-75 CNS): 23.2 µM
GI50 (T-47D breast): 2.4 µM
TGI (T-47D breast): 16.2 µM
GI50 (TK-10 renal): 2.21 µM
TGI (TK-10 renal): 11.3 µM
GI50 (HT29 colon): 1.58 µM
TGI (HT29 colon): 8.02 µM
GI50 (CAKI-1 renal): 0.465 µM
TGI (CAKI-1 renal): 2.9 µM
GI50 (UO-31 renal): 2.24 µM
TGI (UO-31 renal): 13 µM
GI50 (RXF 393 renal): 4.31 µM
TGI (RXF 393 renal): 19.6 µM
GI50 (UACC-257 melanoma): 4.98 µM
TGI (UACC-257 melanoma): 16.9 µM
GI50 (OVCAR-4 ovarian): 10.4 µM
TGI (OVCAR-4 ovarian): 33 µM
GI50 (UACC-62 melanoma): 1.37 µM
TGI (UACC-62 melanoma): 3.15 µM
GI50 (NCI-H460 lung): 0.668 µM
TGI (NCI-H460 lung): > 100 µM
GI50 (SK-MEL-28 melanoma): 5.82 µM
TGI (SK-MEL-28 melanoma): 27.6 µM
GI50 (COLO 205 colon): 5.4 µM
TGI (COLO 205 colon): 18.2 µM
GI50 (ACHN renal): 0.316 µM
TGI (ACHN renal): 1.3 µM
GI50 (SW-620 colon): 1.47 µM
TGI (SW-620 colon): 7.28 µM
GI50 (A549 NSCLC): 0.576 µM
TGI (A549 NSCLC): 3.6 µM
GI50 (786-0 renal): 2.88 µM
TGI (786-0 renal): 12.4 µM
GI50 (EKVX NSCLC): 7.24 µM
TGI (EKVX NSCLC): 26.4 µM
GI50 (SNB-19 CNS): 1.32 µM
TGI (SNB-19 CNS): 4.9 µM
GI50 (SF-268 CNS): 5.83 µM
TGI (SF-268 CNS): 26.4 µM
GI50 (SK-MEL-2 melanoma): 12.7 µM
TGI (SK-MEL-2 melanoma): 36.2 µM
GI50 (U251 CNS): 1.08 µM
TGI (U251 CNS): 3.66 µM
